ChEMBL document CHEMBL1201862, “PubChem BioAssay data set” (2004)
The source made the active and inactive calls.

Tests used:
[1] = Luminescence-based cell-based high throughput dose response assay to identify activators of the DAF-12 from the parasite S. stercoralis (ssDAF-12).; assay type: functional
[2] = target: T1, Oxysterols receptor LXR-beta (Homo sapiens, UniProt P55055); assay: LXR agonists, Gal4 luciferase reporter, dose response, counter-screen for ssDAF-12 agonist project, cell-based, luminescence, HEK293, S. stercoralis campaign (AID 720737); assay type: functional; details: read-out: IC50 (the source's name)
T1 sequence (P55055 whole entry): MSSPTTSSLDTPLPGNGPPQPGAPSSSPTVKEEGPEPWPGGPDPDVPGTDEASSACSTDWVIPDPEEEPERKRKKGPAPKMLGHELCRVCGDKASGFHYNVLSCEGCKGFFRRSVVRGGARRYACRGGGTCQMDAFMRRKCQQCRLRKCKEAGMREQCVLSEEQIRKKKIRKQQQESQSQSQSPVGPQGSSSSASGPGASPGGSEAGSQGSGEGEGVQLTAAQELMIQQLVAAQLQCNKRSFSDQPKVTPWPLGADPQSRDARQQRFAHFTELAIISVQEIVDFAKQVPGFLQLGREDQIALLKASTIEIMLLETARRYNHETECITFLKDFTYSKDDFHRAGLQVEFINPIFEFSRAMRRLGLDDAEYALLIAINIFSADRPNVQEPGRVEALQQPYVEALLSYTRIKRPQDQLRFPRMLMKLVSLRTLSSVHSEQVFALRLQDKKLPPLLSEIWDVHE

P388/ADR = assay: cells; assay type: functional; details: Mus musculus
SN12K1 = assay: cells; assay type: functional; details: Homo sapiens
P388 = assay: cells; assay type: functional; details: Mus musculus
[3] = HEK293T cytotoxicity, dose response, cytotoxicity control for miR-122 modulator project, cell-based, inhibitor set, cherry-pick, set 2 (AID 720697); assay type: functional
[4] = miR-122 activators in hepatoma reporter cells, dose response, cell-based, Huh7 psiCHECK-miR122, Renilla luciferase, cherry-picked (AID 651956); assay type: functional;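 also: huh7 hepatoma cells stably carrying a psiCHECK-2 miR-122 sensor plasmid; renilla luciferase signal reporting endogenous miR-122 activity after 48 h compound exposure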
[5] = cytotoxicity toward NIH3T3 fibroblasts, dose response, counter-screen, cell-based, ATP luminescence, mouse fibroblasts (AID 2010); assay type: functional;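 also: cells exposed to compound for about 90 hours before reading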
[6] = Luminescence Cell-Based Dose Response HTS to Identify Activators of Luciferase Translation or Activity in H4 […] Cells. [Related pubchem assays: 1829 (Project Summary), 1814 (Primary HTS)]; assay type: functional
[7] = inhibitors of intracellular T. cruzi replication, confirmation, NIH3T3 host cells, beta-gal luminescence (AID 2044); assay type: functional, cell-based;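 also: intracellular parasites grown in NIH/3T3 mouse fibroblasts as host cells; luminescent beta-galactosidase reporter signal from transgenic T. cruzi replicating inside host cells; inhibitors lower the luminescence signal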
H4 = assay: Luminescence Cell-Based Dose Response HTS to Identify Activators of 5'UTR Stem-Loop Driven Prion Protein mRNA Translation in H4 Neuroglioblastoma Cells. [Related pubchem assays: 1829 (Project Summary), 1814 (Primary HTS)]; assay type: functional; details: Homo sapiens
[8] = target: T2, Sentrin-specific protease 7 (Homo sapiens, UniProt Q9BQF6); assay type: functional;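 also: Luminescence-based dose-response confirmation of ultra-high-throughput screening hits, measuring inhibition of SENP7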
T2 sequence (Q9BQF6 whole entry): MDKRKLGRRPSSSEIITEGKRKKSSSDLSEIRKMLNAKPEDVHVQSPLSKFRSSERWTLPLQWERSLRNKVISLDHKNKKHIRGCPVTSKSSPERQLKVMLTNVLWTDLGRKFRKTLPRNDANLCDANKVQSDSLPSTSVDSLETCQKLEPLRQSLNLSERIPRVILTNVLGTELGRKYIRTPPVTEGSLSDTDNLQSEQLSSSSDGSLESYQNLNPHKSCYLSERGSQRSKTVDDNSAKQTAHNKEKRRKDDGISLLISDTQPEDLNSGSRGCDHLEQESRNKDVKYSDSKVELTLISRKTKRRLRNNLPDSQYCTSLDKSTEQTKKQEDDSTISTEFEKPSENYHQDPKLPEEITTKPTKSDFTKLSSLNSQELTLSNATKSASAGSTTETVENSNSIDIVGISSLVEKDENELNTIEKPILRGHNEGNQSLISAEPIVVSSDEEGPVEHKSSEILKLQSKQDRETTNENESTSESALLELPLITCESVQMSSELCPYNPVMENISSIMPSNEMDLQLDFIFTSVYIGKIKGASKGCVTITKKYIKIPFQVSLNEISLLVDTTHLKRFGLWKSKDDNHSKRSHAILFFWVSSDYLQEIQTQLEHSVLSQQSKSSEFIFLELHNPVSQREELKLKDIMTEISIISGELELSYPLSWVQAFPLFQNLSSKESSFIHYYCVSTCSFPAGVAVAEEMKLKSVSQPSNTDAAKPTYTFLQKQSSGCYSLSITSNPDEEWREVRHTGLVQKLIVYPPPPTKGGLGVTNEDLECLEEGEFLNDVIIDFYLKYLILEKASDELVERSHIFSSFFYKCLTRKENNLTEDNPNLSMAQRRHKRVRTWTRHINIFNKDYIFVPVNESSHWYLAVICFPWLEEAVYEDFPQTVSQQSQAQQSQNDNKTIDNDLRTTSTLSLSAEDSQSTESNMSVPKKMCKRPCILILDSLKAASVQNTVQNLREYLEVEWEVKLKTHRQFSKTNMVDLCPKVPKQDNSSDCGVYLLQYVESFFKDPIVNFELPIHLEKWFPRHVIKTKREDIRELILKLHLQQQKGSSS

[9] = target: T3, Sentrin-specific protease 8 (Homo sapiens, UniProt Q96LD8); assay type: functional;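 also: luminescence read-out of SENP8 inhibition, dose-response confirmation following an ultra-high-throughput screen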
T3 sequence (Q96LD8 whole entry): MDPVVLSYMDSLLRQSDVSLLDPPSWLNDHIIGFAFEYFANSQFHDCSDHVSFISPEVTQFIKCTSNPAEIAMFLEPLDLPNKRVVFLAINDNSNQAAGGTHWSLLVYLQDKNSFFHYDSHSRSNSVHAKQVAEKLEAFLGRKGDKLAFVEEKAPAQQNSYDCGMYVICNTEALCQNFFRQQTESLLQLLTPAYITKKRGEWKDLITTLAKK

Caspase-3 = target: T4, Caspase-3 (Homo sapiens, UniProt P42574); assay type: functional;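 also: Dose-response selectivity test against caspase-3 for candidate inhibitors of sentrin-specific proteases (SENPs)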
T4 sequence (P42574 whole entry): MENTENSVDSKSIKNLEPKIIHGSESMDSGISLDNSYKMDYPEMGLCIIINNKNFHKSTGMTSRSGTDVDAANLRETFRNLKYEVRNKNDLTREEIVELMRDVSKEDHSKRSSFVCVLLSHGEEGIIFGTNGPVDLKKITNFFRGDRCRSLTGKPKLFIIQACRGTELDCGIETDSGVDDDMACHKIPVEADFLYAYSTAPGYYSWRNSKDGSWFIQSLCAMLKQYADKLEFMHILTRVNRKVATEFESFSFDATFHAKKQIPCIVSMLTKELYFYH

[10] = target: T5, Sentrin-specific protease 6 (Homo sapiens, UniProt Q9GZR1); assay type: functional;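 also: Luminescence-based dose-response confirmatory assay of SENP6 inhibition, following up an ultra-high-throughput screen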
T5 sequence (Q9GZR1 whole entry): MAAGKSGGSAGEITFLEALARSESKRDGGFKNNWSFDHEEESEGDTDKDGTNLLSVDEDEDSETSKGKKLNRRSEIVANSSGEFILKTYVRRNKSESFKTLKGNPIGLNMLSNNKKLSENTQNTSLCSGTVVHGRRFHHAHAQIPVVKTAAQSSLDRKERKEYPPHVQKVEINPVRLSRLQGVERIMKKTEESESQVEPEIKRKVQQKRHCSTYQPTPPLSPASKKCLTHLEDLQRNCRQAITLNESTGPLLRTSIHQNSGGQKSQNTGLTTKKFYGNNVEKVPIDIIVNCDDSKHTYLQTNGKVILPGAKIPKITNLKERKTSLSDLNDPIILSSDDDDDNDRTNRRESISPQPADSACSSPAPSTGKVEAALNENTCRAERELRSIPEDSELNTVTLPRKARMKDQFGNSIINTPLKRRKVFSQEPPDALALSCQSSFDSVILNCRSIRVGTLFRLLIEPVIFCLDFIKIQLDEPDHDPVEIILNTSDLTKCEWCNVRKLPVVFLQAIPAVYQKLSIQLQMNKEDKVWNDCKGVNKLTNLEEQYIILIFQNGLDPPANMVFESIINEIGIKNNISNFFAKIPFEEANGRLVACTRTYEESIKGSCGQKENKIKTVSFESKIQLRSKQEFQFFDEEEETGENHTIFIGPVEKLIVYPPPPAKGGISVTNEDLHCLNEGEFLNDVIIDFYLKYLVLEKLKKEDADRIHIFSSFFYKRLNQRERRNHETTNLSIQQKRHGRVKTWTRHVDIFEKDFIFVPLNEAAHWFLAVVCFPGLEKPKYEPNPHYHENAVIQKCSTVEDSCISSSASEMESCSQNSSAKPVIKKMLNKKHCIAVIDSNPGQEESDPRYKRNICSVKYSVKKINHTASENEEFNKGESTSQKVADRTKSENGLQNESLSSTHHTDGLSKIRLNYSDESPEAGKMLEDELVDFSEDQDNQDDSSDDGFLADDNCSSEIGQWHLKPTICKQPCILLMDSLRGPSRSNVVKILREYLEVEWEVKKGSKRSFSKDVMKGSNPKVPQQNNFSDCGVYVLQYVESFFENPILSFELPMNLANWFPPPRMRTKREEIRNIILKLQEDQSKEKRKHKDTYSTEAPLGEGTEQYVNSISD

[11] = P. falciparum Dd2 growth inhibitors, dose response, SYBR Green, cherry-picked samples (AID 1159567); assay type: functional, cell-based

CCc1ccc2cc3c(cc2n1)C(=O)c1ccccc1-3
IC50 [1]: > 67.5 µM (inactive) | EC50 [2]: > 67.5 µM (inactive)

C=C1C(=O)O[C@H]2C1[C@H](OC(=O)/C(C)=C\COC(C)=O)C[C@]1(CO1)[C@@H]1[C@H](O)[C@H]3O[C@@]3(C)[C@@H]12 (some centres not stated)
GI50 (P388/ADR): 8.13 µM (inactive) | GI50 (SN12K1): 24.8 µM (inactive) | GI50 (P388): 3.4 µM (inactive)

C=C1C(=O)OC2/C=C(\C)CC(O)/C=C(/CO)CC(OC(=O)/C(C)=C/C)C12 (configuration not stated)
GI50 (P388/ADR): 16.7 µM (inactive) | GI50 (SN12K1): 24.8 µM (inactive) | GI50 (P388): 11.1 µM (inactive)

C[C@@H]1CN([C@@H](C)CO)C(=O)c2cc(NS(=O)(=O)c3ccc(F)cc3)ccc2O[C@@H]1CN(C)Cc1ccc(-c2ccccc2)cc1
AC50 [3]: < 0.195 µM (active) | AC50 [4]: 17.7 µM (active)

CN1c2ccsc2/C(=N/Nc2ccc(F)cc2)CS1(=O)=O
IC50 [1]: > 67.5 µM (inactive) | EC50 [5]: > 60 µM (not active) | EC50 [6]: 54.8 µM (active) | EC50 [2]: > 67.5 µM (inactive) | EC50 [7]: 3.22 µM (active) | EC50 (H4): 49.1 µM (active)

Cc1ccc(/C=N/OC(=O)c2nn(C)cc2Cl)cc1
IC50 [8]: 13 µM (active) | IC50 [9]: 54.7 µM (active) | IC50 (Caspase-3): 24 µM (active) | IC50 [10]: 39 µM (active)

CNC(=O)OCc1nc([S+](C)[O-])n(C)c1COC(=O)NC (configuration not stated)
GI50 (P388/ADR): > 100 µM (inactive) | GI50 (SN12K1): > 100 µM (inactive) | GI50 (P388): > 100 µM (inactive)

O=C(C1CCOCC1)N1[C@H](CO)[C@@H](c2ccccc2)C12CN(Cc1cccc(Cl)c1)C2
AC50 [11]: 5.41 µM (active)

Cc1cn([C@H]2C[C@H](N=[N+]=[N-])[C@@H](CO)O2)c(=O)[nH]c1=O [ZIDOVUDINE]
GI50 (P388/ADR): > 100 µM (inactive) | GI50 (SN12K1): > 100 µM (inactive) | GI50 (P388): 99.3 µM (inactive)
